From patent US20210186905A1, “ENHANCING T-CELL FUNCTION AND TREATING A T-CELL DYSFUNCTIONAL DISORDER WITH A COMBINATION OF AN LSD INHIBITOR AND A PD-1 BINDING ANTAGONIST” (EpiAxis Therapeutic Pty Ltd, priority 2017, published 2021)
Entries after “also recorded” stand apart in the source; their conditions may differ. Structures can show the parent of a compound that is named as a salt.

Key:
LSD1 = LSD1 (Homo sapiens, UniProt O60341); details: MDA-MB-231; TNFI of LSD1p and H3k4me2
Procedure: (§1) A. MDA-MB-231 breast cancer cell line was treated with increasing doses of phenelzine sulfate (phenelzine). Immunofluorescence microscopy was performed on cells fixed and probed with primary anti-LSD1s111p and anti-H3k4me2 and DAPI. Representative images for each dataset are shown. Graph represents the TNFI values for LSD1p and H3k4me2 measured using ImageJ to select the nucleus minus background (n>20 individual cells). B. The effect of phenelzine sulfate on cell proliferation of MDA-MB-231 cells was analyzed using the WST-1 proliferation assay

[1] = tested on: MDA-MB-231 breast cancer cell line
Procedure: as §1

CSV, LSD1p, SNAI1 = assay: Immunofluorescence of cancer cells from primary tumor micro-environment, mesenchymal CTC signature panel; assay type: in vivo, mouse; details: cancer cells from primary TME; % change relative to vehicle control
Procedure: FIG. 2 is a graphical and photographic representation showing the efficacy of dual phenelzine sulfate (phenelzine) and anti-PD1 antibody (PD1) therapy on circulating tumor cells (CTCs) and cancer stem cells (CSC) as well as tumor burden. A. Statistics of tumor volumes on day 15 post-treatment. A Mann-Whitney non-parametric t-test was used to compare control vs other groups (*p<0.02, **p<0.008). Group A=Control, Group C: PD1 (10 mg/kg), Group D: Phenelzine (40 mg/kg), Group F: PD1+Phenelzine. Illustration of the treatment protocol is also shown. […] Representative images for each dataset are shown. […] C. […] (a) Representative images for each dataset are shown. (b) Graph represents the TCFI values for CD133 TNFI for ALDH1A and TFI for ABCB5 measured using ImageJ to select the nucleus/cytoplasm minus background (n>20 individual cells, Group A=Control, Group C: PD1 (10 mg/kg), Group D: Phenelzine (40 mg/kg), Group F: PD1+Phenelzine).
FIG. 11 is a photographic and graphical representation showing triple therapy efficacy on CTC/CSC and tumor burden. […] (b) Graph represents the TCFI values for CD133 TNFI for ALDH1A and TFI for ABCB5 measured using ImageJ to select the nucleus/cytoplasm minus background (n>20 individual cells, Group A=Control, Group B: Abraxane (30 mg/kg), Group C: anti-PD1 (10 mg/kg), Group D: Phenelzine (40 mg/kg), Group E: Abraxane+PD1, Group F: PD1+Phenelzine, Group G: Abraxane+Phenelzine, Group H: Triple Therapy). […]
A total of 2×10^5 cells were injected per mouse into mammary gland in 50 μL of phosphate buffered saline (PBS). […] Tumors were measured using calipers and the tumor volumes (mm3) were calculated using the formula (length×width2)/2. ? arvested cells from primary tumors where then cytospun ? -treated with poly-1-lysine and fixed then stored in PBS for IFA Microscopy Analysis. […] Digital images were analysed using ImageJ software (ImageJ, NIH, Bethesda, Md., USA) to determine the either the Total Nuclear Fluorescent Intensity (TNFI), the Total Cytoplasmic Fluorescent Intensity (TCFI) or total Fluorescent Intensity (TFI).

NNCCc1ccccc1 (racemic) [phenelzine sulfate, (±)-2-phenylethylhydrazine] was tested, and the “nuclear axis of LSD1, as measured by H3k4me2 de-methylation” value (LSD1) was “inhibited”, the “proliferation of MDA-MB-231, as measured by the WST-1 assay” value [1] was “inhibiting the proliferation” and the SNAI1 expression (CSV, LSD1p, SNAI1) was “strong inhibition; also recorded: stronger inhibition”. For the same compound, the “expression of CSV” value (CSV, LSD1p, SNAI1) was “strong inhibition; also recorded: stronger inhibition” and the “nuclear expression of LSD1” value (CSV, LSD1p, SNAI1) was “strong inhibition; also recorded: stronger inhibition”.
